{"source": "paper PMC3762585", "about": "(Chemical & pharmaceutical bulletin, 2012)", "key": {"[1]": {"system": "JMAR, MDA-1986, B16F10, SKMEL-28 and MRC-5 cells", "experiment": "MTS viability", "format": "cell-based", "conditions": "for anti-proliferative activity (cytotoxic effect): tested with a concentration of 20 μM, all five cell lines; for IC50: read-out: IC50 values, range over the cells tested"}, "B16F10 [2]": {"system": "B16F10", "experiment": "MTS viability", "conditions": "Mus musculus, B16-F10, read-out: Cytotoxicity IC50 B16F10"}, "MDA-1986 [3]": {"system": "MDA-1986", "experiment": "MTS viability", "conditions": "Homo sapiens, MDA1986, read-out: Cytotoxicity IC50 MDA-1986"}, "in vitro": {"experiment": "in vitro", "conditions": "human"}, "SKMEL-28 [4]": {"system": "SKMEL-28", "experiment": "MTS viability", "conditions": "Homo sapiens, SK-MEL-28, read-out: Cytotoxicity IC50 SKMEL-28"}, "JMAR [5]": {"system": "JMAR", "experiment": "MTS viability", "conditions": "Homo sapiens, read-out: Cytotoxicity IC50 JMAR"}, "SKMEL-28 [6]": {"system": "SKMEL-28"}, "JMAR [7]": {"system": "JMAR"}, "MDA-1986 [8]": {"system": "MDA-1986"}, "B16F10 [9]": {"system": "B16F10"}}, "note": "Where two headings read alike, the source gives them in different places.", "data": [{"compound": "19-hydroxy viscosalactone B [Withalongolide P 2]", "values": [{"measurement": "anti-proliferative activity (cytotoxic effect)", "setting": "[1]", "value": "inactive"}]}, {"compound": "CC1=C(CO)C(=O)O[C@@H]([C@@H](C)[C@H]2CC[C@H]3[C@@H]4C[C@H]5O[C@]56[C@@H](O)C=CC(=O)[C@]6(C)[C@H]4CC[C@]23C)C1", "note": "[Withaferin A 6, withaferin A]", "values": [{"measurement": "IC50", "setting": "B16F10 [2]", "value": "0.27 ± 0.04", "unit": "µM"}, {"measurement": "IC50", "setting": "MDA-1986 [3]", "value": "0.86 ± 0.25", "unit": "µM"}, {"measurement": "IC50", "setting": "in vitro", "value": "0.32 ± 0.06", "unit": "µM"}, {"measurement": "IC50", "setting": "[1]", "value": "0.15 to 12.7", "unit": "µM"}, {"measurement": "IC50", "setting": "SKMEL-28 [4]", "value": "3.5 ± 0.15", "unit": "µM"}]}, {"compound": "CC1=C(C)C(=O)O[C@@H]([C@@H](C)[C@H]2CC[C@H]3[C@@H]4C[C@H]5O[C@]56[C@@H](O)C=CC(=O)[C@]6(CO)[C@H]4CC[C@]23C)C1", "note": "[Withalongolide B 5, withalongolide B]", "values": [{"measurement": "IC50", "setting": "B16F10 [2]", "value": "0.26 ± 0.07", "unit": "µM"}, {"measurement": "IC50", "setting": "MDA-1986 [3]", "value": "1.7 ± 0.08", "unit": "µM"}, {"measurement": "IC50", "setting": "JMAR [5]", "value": "0.25 ± 0.14", "unit": "µM"}, {"measurement": "IC50", "setting": "in vitro", "value": "0.38 ± 0.03", "unit": "µM"}, {"measurement": "IC50", "setting": "[1]", "value": "0.15 to 12.7", "unit": "µM"}, {"measurement": "IC50", "setting": "SKMEL-28 [4]", "value": "3.3 ± 0.48", "unit": "µM"}]}, {"compound": "CC1=C(CO)C(=O)O[C@@H]([C@@H](C)[C@H]2CC[C@H]3[C@@H]4C[C@H]5O[C@]56[C@@H](O)[C@@H](O)CC(=O)[C@]6(C)[C@H]4CC[C@]23C)C1", "note": "[viscosalactone B 3, viscosalactone B]", "values": [{"measurement": "IC50", "setting": "B16F10 [2]", "value": "> 20", "unit": "µM"}, {"measurement": "IC50", "setting": "MDA-1986 [3]", "value": "> 20", "unit": "µM"}, {"measurement": "IC50", "setting": "JMAR [5]", "value": "> 20", "unit": "µM"}, {"measurement": "IC50", "setting": "in vitro", "value": "> 20", "unit": "µM"}, {"measurement": "anti-proliferative activity (cytotoxic effect)", "setting": "[1]", "value": "inactive"}, {"measurement": "IC50", "setting": "SKMEL-28 [4]", "value": "> 20", "unit": "µM"}]}, {"compound": "Withalongolide O 4,7-Diacetate [Withalongolide O 4,7-diacetate 1a]", "values": [{"measurement": "IC50", "setting": "SKMEL-28 [6]", "value": "0.18 ± 0.03", "unit": "µM"}, {"measurement": "IC50", "setting": "JMAR [7]", "value": "0.83 ± 0.14", "unit": "µM"}, {"measurement": "IC50", "setting": "MDA-1986 [8]", "value": "0.54 ± 0.07", "unit": "µM"}, {"measurement": "IC50", "setting": "B16F10 [9]", "value": "0.69 ± 0.14", "unit": "µM"}, {"measurement": "IC50", "setting": "MRC-5", "value": "0.53 ± 0.12", "unit": "µM"}]}]}
